According to patent US8940310B2, “Methods of treatment using TLR7 and/or TLR9 inhibitors” (Dynavax Technologies Corporation, priority 2010, dated 2015):
Marks after values point to notes of the source that are not given here.

Tests used:
[1] = Solubility of spacer measured as dialcohol precursor; assay type: physicochemical; conditions: dodecyl spacer measured as dialcohol precursor
PDC = conditions: 129 mice, conventional and plasmacytoid DC, spleen and blood
[2] = Monomer and tetramer formation of IRPs, size-exclusion HPLC; assay type: physicochemical; conditions: 100 mg/mL in PBS and 0.5M KCl, room temperature, five weeks
Description: Solutions were prepared of the by mixing 100 mg/mL of the IRP sequences in PBS and 0.5M KCl and storing at room temperature for three to five weeks. The solutions were subsequently analyzed by size-exclusion HPLC.

[3] = High dosages of IRPs in rats (weight, deaths, histology); assay type: in vivo, Sprague Dawley rats; conditions: rat
Description: To test the activity of IRPs at high dosages in rats, IRPs (SEQ ID NO:42 and SEQ ID NO:109) or a control (PBS) were subcutaneously administered to 8-9 weeks old, […], 3, 6, and 9 (n=6 per group). Rats were weighed prior to administration and on days 1, 3, 4, 6, 7, and 9. Organs were harvested at the end of the study, and organ weights and tissues levels of the oligonucleotides were determined. In addition, histolocial evaluation of the liver, kidney, and heart was performed.
Rats were weighed prior to administration and on days 1, 3, 6, 7, and 9. Organs were harvested at the end of the study, and organ weights and tissues levels of the oligonucleotides were determined. In addition, histological evaluation of the liver, kidney, and heart was performed.

[4] = High dosages of IRPs in mice (weight, histology); assay type: in vivo, BALB/c mice; conditions: 100 mg/kg
Description: To test the activity of IRPs at high dosages in mice, IRPs or a control (saline) were subcutaneously administered to BALB/c mice at a dosage of 4 mg/kg, 20 mg/kg, 50 mg/kg, or 100 mg/kg on days 1, 4, 7, and 10 (n=5 per group). Mice were weighed prior to administration and on days 2, 4, 7, 9, and 11. Serum cytokines were assayed at two hours post the first and third injections and 24 hours post the fourth injection. Organs were harvested at the end of the study, and organ weights and tissues levels of the oligonucleotides were determined. In addition, histological evaluation of the liver, kidney, and heart was performed.
Mice were weighed prior to administration and on days 1, 3, 4, 6, 7, and 9. Organs were harvested at the end of the study, and organ weights and tissues levels of the oligonucleotides were determined. In addition, histological evaluation of the liver, kidney, and heart was performed.

human B-cells = experiment: Human B-cells cultured in the presence of IRPs, IL-6

OCCCCCCCCCCCCO [1,12-dihydroxydodecane]
solubility [1]: < 5000 µg/mL

5′-TCGTCGAACGTTCGAGATGAT-3′ [SEQ ID NO:158, reference compound]
protection from GC-induced cell death (PDC): afforded significant protection from GC-induced cell death

5′-TGC TGC TCC TGG AGI GGT TG-HEG-T-3′ (DNA TGCTGCTCCTGGAGNGGTTGNT; inosine, internal HEG spacer, chemistry not fully specified) [SEQ ID NO:144]
fraction in monomer form [2]: 100%
Liver: hepatocellular cytoplasmic vacuolation ([3]; 10 mg/kg): hepatocellular cytoplasmic vacuolation
Heart: cellular vacuolation ([3]; 90 mg/kg): present in some animals
Kidney: tubular basophilia ([3]; 90 mg/kg): occurred
Liver: hepatocellular cytoplasmic vacuolation ([3]; 90 mg/kg): hepatocellular cytoplasmic vacuolation
Liver: hepatocellular necrosis ([3]; 90 mg/kg): hepatocellular necrosis
Heart: Chronic inflammation, number of animals [4]: 1
Heart: Mineralization, number of animals [4]: 2
Heart: Chronic inflammation, mean severity score ([4]; 0 = no change to 4 = severe): 3.0
Heart: Mineralization, mean severity score ([4]; 0 = no change to 4 = severe): 2.5
Liver: Liver changes, mean severity score ([4]; 0 = no change to 4 = severe): 2.0
Liver: Mixed cell infiltration, mean severity score ([4]; 0 = no change to 4 = severe): 2.0
Right Kidney: Tubular changes, mean severity score ([4]; 0 = no change to 4 = severe): 2.0
Liver: Liver changes, number of animals ([4]; 6 animals): 6
Liver: Mixed cell infiltration, number of animals ([4]; 6 animals): 6
Liver: No significan changes, number of animals ([4]; 6 animals): 0
Right Kidney: No significant changes, number of animals ([4]; 6 animals): 0
Right Kidney: Tubular basophilia, number of animals ([4]; 6 animals): 0
Right Kidney: Tubular changes, number of animals ([4]; 6 animals): 6
Heart: No significant changes, number of animals ([4]; tissue missing in two animals): 1**
Normalized IL-6 Response (Percentage of Positive Control) (human B-cells; Experiment # 3, Max Conc 4.0 uM): 10%
B-cell stimulatory activity (human B-cells; FIG. 1C, percent IL-6 from CpG-ISS): low B-cell stimulatory activity
